# Like-named read-outs stand apart in the source and are kept apart here.
# How the values were obtained:
# Hs746t cells = test: Hs746t cell proliferation; type: cell-based, human
# Source text: (§1) Hs746t is a gastric cancer cell line known to have MET exon 14 skipping mutation(s) and MET amplification (Asaoka et al., Biochem Biophys Res Commun 394:1042-1046).
# [1] = system: Hs746t-derived xenograft of human gastric carcinoma; test: Hs746t xenograft model, Example 1 (combination vs monotherapy); type: in vivo, mice
# Experimental: as §1
# (§2) Female athymic nude mice (Envigo) are used for this study. Food and water are available ad libitum. Animals are acclimated for 1 week prior to any experimental manipulation. The study is performed in accordance with AAALAC accredited institutional guidelines.
# Merestinib is formulated as a solution in 10% PEG 400/90% (20% Captisol in water). Emibetuzumab is diluted in phosphate buffered saline (PBS). Solutions are freshly prepared every 7 days.
# Obtain Hs746t cells from ATCC (American Type Culture Collection) and maintain in RPMI 1640 with 10% fetal bovine serum at 37° C. in 5% CO2. Expand cells in culture, harvest, and wash in Hank's Balanced Salt Solution (HBSS, GIBC®). Implant sub-confluent […] cells into 60 female nu/nu mice at a concentration of 1×10^7 cells in 0.2 ml HBSS subcutaneously into the hind flank of the animal.
# Administer merestinib by oral gavage at either 6 mg/kg or 12 mg/kg in a dose volume of 0.2 mL in 10% polyethylene glycol 400/90% of a mixture of 20% Captisol in water, and antibody treatments by intraperitoneal injection (IP) starting on day 12 after tumor cell implantation when average tumor volume of 350 mm^3 and ending on Day 33. Inject animals IP in a dosing volume of 10 mg/kg. After 14 days of dosing (Study Day 27), the animals in the control group are sacrificed because of tumor volumes exceeding >2000 mm^3. After the 28-day dosing period, animals in the single agent arms are sacrificed. […]
# In both studies, animals are sacrificed using CO2 and cervical dislocation when tumors grow larger than 2000 mm^3, or at the end of study.
# Record tumor growth and body weight changes at least twice a week. Body weight measurement during the course of the study, is a general indicator of tolerability.
# (§3) Measure tumor growth with calipers and record body weights twice weekly. Calculate tumor volumes by the formula Volume (mm^3)=L×W^2 (π/6) where L represents the larger diameter and W the smaller diameter. Calculate T/C % using the formula T/C %=100×ΔT/ΔC. Where ΔT=mean tumor volume of the drug-treated group on the final day of the study−mean tumor volume of the drug-treated group on the initial day of the dosing and ΔC=mean tumor volume of the control group on the final day of the study−mean tumor volume of the control group on the initial day of the dosing. Calculate changes in body weight by the formula (Weight on observation day−Weight on day 12)/Weight on Day 12×100. Calculate test for significant differences between treatment groups by RMANOVA using the JMP (v.9.0.3) statistical package (SAS Institute Inc., Cary, N.C., USA).
# The p-value from the 2×2 interaction test on day 28 is not significant at p=0.654. All pairwise comparisons between the combination group and each single agent group on day 33 are also statistically significant. […] Full statistical analysis is not feasible as the animals in the vehicle control groups were removed after 14 days of dosing as the animals are sacrificed due to tumor burden.
# pMET = pMET in Hs746t cells; type: cell-based, human
# [2] = system: Hs746t-derived xenograft of human gastric carcinoma; test: Hs746t xenograft model, Example 2 (sequential and concurrent administration); type: in vivo, mice
# Experimental: as §2
# Merestinib is formulated as a solution in 10% PEG 400/90% (20% Captisol in water). Emibetuzumab and IgG control are diluted in PBS. Solutions are freshly prepared every 7 days.
# Obtain, maintain, expand, harvest, and wash Hs746t cell as in Example 1. Implant cells into 36 female nu/nu mice at a concentration of 2×10^6 cells in 0.2 ml HBSS subcutaneously into the hind flank of the animal. […] After the 28-day dosing period, animals in the single agent arms are sacrificed. Tumors in the animals in the combination treatment groups are monitored for continued growth or regrowth of tumors.
# In these studies, animals are sacrificed using CO2 and cervical dislocation when tumors grow larger than 2000 mm^3, or at the end of study.
# Measure tumor volumes and body weight at least twice weeky. Body weight measurement during the course of the study, is a general indicator of tolerability.
# as §3, with “RM ANOVA” for “RMANOVA”
# Transform tumor volume to the log scale to equalize variance across time and treatment groups. Analyze the log volume data with a two-way repeated measures analysis of variance by time and treatment using the MIXED procedures in SAS software (Version 9.3). The correlation model for the repeated measures is spatial power. Compare treated groups to the control group at each time point. The MIXED procedure is also used separately for each treatment group to calculate adjusted means and standard errors at each time point. Both analyses account for the autocorrelation within each animal and the loss of data that occurs when animals are removed or lost before the end of the study. The adjusted means and standard errors are plotted for each treatment group versus time. […]
Molecule,IC50 (Hs746t cells),tumor response course ([1]; emibetuzumab 10 mg/kg IP qw),"transient tumor regression ([1]; emibetuzumab 10 mg/kg IP qw, after 3 doses)",effect on pMET expression (pMET; at 130-650 nM),"maximum tumor regression ([2]; emibetuzumab 10 mg/kg qw, Day 27)","maximum tumor regression ([2]; emibetuzumab 20 mg/kg qw, Day 37)",IC50 (Hs746t cells; Homo sapiens),tumor response course ([1]; merestinib 6 mg/kg qd orally),"T/C ([1]; merestinib 6 mg/kg qd orally, after 21 day dosing)","mice with no tumor regrowth ([1]; merestinib 12 mg/kg cohort, during the 5 weeks post-treatment)","tumor regression ([1]; merestinib 12 mg/kg qd orally, after 21 day dosing)",effect on pMET (pMET; at 65-100 nM),"tumor volume on re-growth while on treatment ([2]; merestinib 6 mg/kg qd single agent, by Day 37)","maximal tumor regression ([2]; merestinib 6 mg/kg qd, Day 27 (7 days of dosing))"
emibetuzumab: C8-H241-IgG4 anti-human MET antibody: two light chains of SEQ ID NO: 5 and two heavy chains of SEQ ID NO: 7,> 0.1 µM,tumors are observed to regrow while on treatment,37.7%,no effect,16.0%,58.9%,,,,,,,,
"Cc1ccc(C(=O)Nc2ccc(Oc3cc4cnn(C)c4cc3-c3cn[nH]c3)c(F)c2)c(=O)n1-c1ccc(F)cc1 [merestinib, N-(3-Fluoro-4-(1-methyl-6-(1H-pyrazol-4-yl)-1H-indazol-5-yloxy)phenyl)-1-(4-fluorophenyl)-6-methyl-2-oxo-1,2-dihydropyridine-3-carboxamide]",,,,,,,0.034 µM,transient tumor regression followed by re-growth while on treatment,18.3%,6/7,91.8%,totally eliminates,about 500 mm^3,30.2%
